Measurements published in patent US8946302B2, “Selective sigma-1 receptor ligands” (Wisconsin Alumni Research Foundation, priority 2008, dated 2015).
Values joined by “and” are separate entries in the source; they are usually repeats but may differ in a detail not shown here. Equal values may be shown once. Read-outs that look alike come from different tables or passages of the source.

What was measured:
[1] = molecular target: T1, sigma-1 receptor (Cavia porcellus, UniProt Q60492); test: Sigma-1 competitive binding, (+)-[3H]pentazocine, guinea pig liver membranes (Example 6); parameters: from tissue; host or cells: guinea pig liver membranes;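 note: compounds tested over serial concentrations, 45 min incubation at 30 °C with membrane preparations, read-out is displacement of bound radioligand from the receptor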
T1 sequence (Q60492 whole entry): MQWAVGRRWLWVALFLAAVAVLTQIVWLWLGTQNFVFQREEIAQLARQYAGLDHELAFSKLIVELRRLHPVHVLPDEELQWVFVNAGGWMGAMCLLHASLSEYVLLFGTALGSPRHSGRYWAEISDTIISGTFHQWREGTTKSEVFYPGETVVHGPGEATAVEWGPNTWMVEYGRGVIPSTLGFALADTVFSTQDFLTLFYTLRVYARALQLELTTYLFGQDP
Protocol: (§2) Minced frozen rat livers or guinea pig livers (65 g) were thawed in 100 mL homogenization buffer (10 mM phosphate buffer pH 7.4 containing 0.32M sucrose, 1 M MgSO4, 0.5 M EGTA, 1 mM phenylmethylsulphonyl fluoride (PMSF), 10 μg/mlleupeptin, 1 μg/ml pepstatin A, 10 μg/ml p-toluenesulfonyl-L-arginine methyl ester (TAME) and then homogenized on ice with a Brinkman polytron homogenizer (setting 6, 4 bursts of 10 second each) followed by a glass homogenizer (Teflon pestle by 6 slow passes at 3,000 rpm). The homogenized tissues were then centrifuged at 17,000 g for 10 minutes. The supernatants were re-centrifuged at 100,000 g for 1 hour. The microsomal pellets were resuspended in homogenization buffer, snap frozen with dry ice-ethanol, and stored at −80° C. at a final protein concentration of 20 mg/mL.
(§3) Assays for sigma-1 were performed using 10 nM (+)-[^3H]pentazocine in guinea pig liver homogenates (25 μg/well) incubated at 30° C. for 1 hour with several concentrations of competing ligands. After incubation, membranes were harvested on a 0.5% PEI-treated Whatman GF/B filters using a Brandel Cell Harvester. (+)-[^3H]pentazocine binding was determined by liquid scintillation counting. […] Serial concentrations of the compounds evaluated were added to the reactions for 45 minutes at 30° C. and the samples vacuum filtered through 0.5% polyethyleneimine (PEI) treated Whatman GF/B as described above to measure displacement of the radioligands from the sigma receptor subtypes.

[2] = molecular target: T2, sigma-2 receptor (Rattus norvegicus, UniProt Q5U3Y7); test: Sigma-2 competitive binding, [3H]-DTG with (+)-pentazocine, rat liver membranes (Example 6); parameters: from tissue; host or cells: rat liver membranes
T2 sequence (Q5U3Y7 1-176): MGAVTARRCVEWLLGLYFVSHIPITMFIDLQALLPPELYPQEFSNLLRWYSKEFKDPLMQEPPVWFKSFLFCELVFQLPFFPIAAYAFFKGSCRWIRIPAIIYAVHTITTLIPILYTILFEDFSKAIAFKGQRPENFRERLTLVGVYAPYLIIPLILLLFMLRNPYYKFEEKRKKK
Protocol: as §2, §3

[3] = molecular target: T1, sigma-1 receptor; test: Affinity for the sigma-1 receptor (Table 3); format: binding; parameters: from tissue
[4] = molecular target: T3, σ-2 Sites (Rattus norvegicus, UniProt Q5U3Y7); test: σ-2 sites radioligand binding, rat liver membranes (Table 2)
T3 construct: from tissue
T3 sequence (Q5U3Y7 1-176): T2 sequence (Q5U3Y7 1-176)

[5] = molecular target: T4, σ-1 Sites (Cavia porcellus, UniProt Q60492); test: σ-1 sites radioligand binding, guinea pig liver membranes (Table 2); details: for Ki: guinea pig liver membranes; for σ-1 selectivity σ-2 Ki/σ-1 Ki: σ-2 rat liver / σ-1 guinea pig liver membranes
T4 construct: from tissue
T4 sequence (Q60492 whole entry): as the sequence (Q60492 whole entry) above
Protocol: as §3

[6] = molecular target: T5, purified sigma-1 receptor (Cavia porcellus, UniProt Q60492); test: Competitive displacement of [3H]-(+)-pentazocine at the pure sigma-1 receptor; format: binding, guinea pig; details: read-out: Ki Pure σ-1R
T5 construct: made in house; host or cells: E. coli BL21 DE3
T5 sequence (Q60492 whole entry): as the sequence (Q60492 whole entry) above
Protocol: A guinea pig sigma-1 receptor was purified as previously described (Ramachandran et al., Protein Expr. Purif., 2007. 51(2): 283-92). The pMal P2X plasmid (New England Biolabs) encoding the guinea pig sigma-1 receptor on the C-terminus of the E. coli Maltose Binding Protein was used for purification. The sigma-1 receptor on its C-terminus carried a hexa-histadine epitope tag. Protein was expressed in the E. coli strain BL21 DE3 (Novagen) with 0.6 mM IPTG. The E. coli pellet was sonicated and centrifuged at 100,000 g for 1 hour to separate the particulate and soluble fractions. The particulate fraction was extracted with Triton X-100, centrifuged and the extract was loaded onto an amylose resin (New England Biolabs, E-802). After washing the resin with buffer containing 0.5% Triton X-100, the MBP-sigma-1 receptor fusion protein was eluted with buffer containing 10 mM maltose.
The MBP-sigma-1-receptor fusion protein was cleaved with Factor Xa protease (Novagen) at room temperature for 24-48 hours and the cleavage was monitored with SDS-polyacrylamide gel electrophoresis. The sigma-1 receptor from the Factor Xa cleavage was purified with a HIS-Select HC Nickel affinity gel (Sigma-Aldrich P6611) in a batch format. The resin was washed with buffer containing 0.5% Triton X-100 detergent and the beads were separated by a brief centrifugation at 4000 rpm in a microcentrifuge. After washing to remove MBP, the pure sigma-1 receptor was eluted in buffer containing 250 mM imidazole.
To remove the undigested MBP-sigma-1 receptor fusion protein that is carried over in the Ni^2+ purification, the eluate from the Ni^2+ purification was incubated with Anti-MBP antibody conjugated to agarose (Vector Laboratories, Burlingame, Calif.) at 4° C. for 18-24 hours. The beads were separated by centrifugation and the supernatant contained the pure sigma-1 receptor.
Competition ligand binding to the pure sigma-1 receptor was performed as previously described. […] After incubation at 30° C. for 60 minutes, the reaction was terminated by rapid filtration through glass fiber filters (Whatman GF/B), using a Brandel cell harvester (Brandel, Gaithersburg, Md.). The glass fiber filters were pre-soaked in 0.5% polyethyleneimine (PEI) for at least 1 hour at room temperature (˜23° C.). Filters were washed 4 times with 4 mL of ice-cold 50 mM Tris-C1, pH 8.0. Radioactivity was quantified by liquid scintillation counting using a Packard model 1600 CA scintillation counter.

[7] = test system: HI299; test: Cytotoxicity assay HI299; format: cell-based; details: Homo sapiens, HU Lung, read-out: IC50 (SE) growth inhibition
Protocol: (§1) Multi-plex cytotoxicity assays were performed by the Keck-UWCCC Small Molecule Screening Facility (Madison, Wis.). Specific methodology can be found online at http://hts.wisc.edu/Resources.htm#mpa.

[8] = test system: SKOV-3; test: Cytotoxicity assay SKOV-3; format: cell-based; details: Homo sapiens, SK-OV-3, HU Ovarian, read-out: IC50 (SE) growth inhibition
Protocol: as §1

[9] = test system: NCI-H460; test: Cytotoxicity assay NCI-H460; format: cell-based; details: Homo sapiens, HU lung, read-out: IC50 (SE) growth inhibition
Protocol: as §1

[10] = test system: SF268; test: Cytotoxicity assay SF268; format: cell-based; details: Homo sapiens, SF-268, HU CNS, read-out: IC50 (SE) growth inhibition
Protocol: as §1

[11] = test system: Du145; test: Cytotoxicity assay Du145; format: cell-based; details: Homo sapiens, DU-145, HU Prostate, read-out: IC50 (SE) growth inhibition
Protocol: as §1

[12] = test system: HT-29; test: Cytotoxicity assay HT-29; format: cell-based; details: Homo sapiens, HU Colorectal, read-out: IC50 (SE) growth inhibition
Protocol: as §1

[13] = test system: MCF7; test: Cytotoxicity assay MCF7; format: cell-based; details: Homo sapiens, HU Breast, read-out: IC50 (SE) growth inhibition
Protocol: as §1

[14] = test system: MB-MDA-231; test: Cytotoxicity assay MB-MDA-231; format: cell-based; details: Homo sapiens, HU Breast, read-out: IC50 (SE) growth inhibition
Protocol: as §1

[15] = test system: HCT-45; test: Cytotoxicity assay HCT-45; format: cell-based; details: Homo sapiens, HU Colorectal, read-out: IC50 (SE) growth inhibition
Protocol: as §1

[16] = test system: A549; test: Cytotoxicity assay A549; format: cell-based; details: Homo sapiens, HU lung, read-out: IC50 (SE) growth inhibition
Protocol: as §1

[17] = test system: MCP10A; test: Cytotoxicity assay MCP10A; format: cell-based; details: Homo sapiens, HU Breast, read-out: IC50 (SE) growth inhibition
Protocol: as §1

[18] = test system: tumor cell lines; test: Cytotoxicity assays, various tumor cell lines (statements in words); format: cell-based, human
Protocol: Because sigma-1 receptors are overexpressed in numerous tumor cell lines, which include breast cancer, lung carcinoma, renal carcinoma, colon carcinoma, sarcoma, brain tumors, melanoma, glioblastoma, neuroblastoma, and prostate cancer, the ability of the compounds to inhibit the growth of various tumor cell lines were tested.
as §1

[19] = rat liver membranes, n = 3, read-out: Sigma2 KD values
[20] = guinea pig liver membranes, n = 3, read-out: Sigma 1 KD values

## CCCN(CCCc1ccc(F)cc1)Cc1ccc(N=[N+]=[N-])c(I)c1 [Compound 15]
[1]
  Ratio (σ2/σ1): 570.8 ^

## CCCCCCCCN(CCCCCCCC)CCCc1ccc(F)cc1 [Compound 8, N,N-Dioctyl-3-(4-fluorophenyl)propylamine]
[1]
  Ratio (σ2/σ1): 2.49
[2]; [19]
  Kd: 1.65 µM

## CCCN(CCC)CCc1c[nH]c2ccccc12 [DPT, reference compound]
[3]
  Kd: 1.6 µM

## CCCCCCCCCCCCCCCCCCNCCCc1ccc([N+](=O)[O-])cc1 [Compound 1h, N-(3-(4-Nitrophenyl)propyl)octadecan-1-amine]
[4]
  Ki: 8.83 µM
[5]
  Ki: 26.9 µM
  σ-1 selectivity σ-2 Ki/σ-1 Ki: 0.3
[6]; [3H]-(+)-pentazocine
  Ki: 0.0415 µM

## CCCN(CCCc1ccc([N+](=O)[O-])cc1)CCc1ccc(N)cc1 [Compound 18, N-Propyl-N-4-aminophenylethyl-3-(4-nitrophenyl)propylamine]
[1]
  Ratio (σ2/σ1): 13.93 ^
[7]
  IC50: > 100 µM
[2]; [19]
  Kd: 0.0836 µM
[8]
  IC50: > 100 µM
[9]
  IC50: > 100 µM
[10]
  IC50: > 100 µM
[11]
  IC50: > 100 µM
[12]
  IC50: > 100 µM
[13]
  IC50: 86.1 µM
[14]
  IC50: > 100 µM
[15]
  IC50: > 100 µM
[16]
  IC50: > 100 µM
[17]
  IC50: > 100 µM

## NCCCc1ccccc1 [Compound 2]
[1]
  Ratio (σ2/σ1): 3.92
[1]; [20]
  Kd: 68.9 µM
[2]; [19]
  Kd: 270 µM

## CCCCCCCNCCCc1ccccc1 [UC1]
[3]; read-out: Sigma-1 KD
  Kd: 0.012 µM

## CCCCCCCCCCCCNCCCc1ccccc1 [UC3]
[3]; read-out: Sigma-1 KD
  Kd: 0.092 µM

## CCCCCCCCN [Octylamine]
[6]; [3H]-(+)-pentazocine 10 nM
  Ki: 5.6 µM and 6 µM

## CCCCCCN [Hexylamine]
[6]; [3H]-(+)-pentazocine 10 nM
  Ki: 37.5 µM and 37 µM

## CCCN(CCCc1ccc(F)cc1)CCc1ccc(N=[N+]=[N-])c(I)c1 [HD5]
[18]
  cytotoxicity / tumor cell growth inhibition: potent cell growth inhibitor of both MB-MDA-231 and MCF7

## CCCN(CCCc1ccc([N+](=O)[O-])cc1)CCc1ccc(N)cc1 [HD4]
[3]; read-out: Sigma-1 KD
  Kd: 0.006 µM

## CCCCN(CCCC)CCCc1ccc([N+](=O)[O-])cc1 [HD2]
[3]; read-out: Sigma-1 KD
  Kd: 0.00036 µM

## CCCC[N+](CCCC)(CCCC)CCCC [Compound 3]
[1]
  Kd: 54.7 µM
  Ratio (σ2/σ1): 4.90
[2]
  Kd: 268 µM

## CCCCCCCCCCCCNCCCc1ccccc1 [Compound 1e, N-(3-Phenylpropyl)dodecan-1-amine]
[4]
  Ki: 2.1 µM
[5]
  Ki: 5.3 µM
[6]; [3H]-(+)-pentazocine
  Ki: 0.0632 µM

## CCCCCCCNCCCc1ccc([N+](=O)[O-])cc1 [Compound 1d, N-(3-(4-Nitrophenyl)propyl)heptane-1-amine]
[3]; read-out: Sigma-1 KD
  Kd: 0.0057 µM
[4]
  Ki: 0.011 µM
[5]
  Ki: 0.01 µM
  σ-1 selectivity σ-2 Ki/σ-1 Ki: 1
[6]; [3H]-(+)-pentazocine
  Ki: 0.0075 ± 0.0012 µM
[18]
  cytotoxicity / tumor cell growth inhibition: remarkable activity for inhibiting tumor growth

## CCCCN(CCCC)CCCc1ccc(F)cc1 [Compound 10, N,N-Dibutyl-3-(4-fluorophenyl)propylamine]
[1]
  Ratio (σ2/σ1): 38.7
[1]; [20]
  Kd: 0.0177 µM
[7]
  IC50: > 100 µM
[2]; [19]
  Kd: 0.685 µM
[8]
  IC50: 56.2 µM
[9]
  IC50: > 100 µM
[10]
  IC50: > 100 µM
[11]
  IC50: > 100 µM
[12]
  IC50: > 100 µM
[13]
  IC50: > 100 µM
[14]
  IC50: > 100 µM
[15]
  IC50: > 100 µM
[16]
  IC50: > 100 µM
[17]
  IC50: > 100 µM
